Results on 26 compounds are retold here after US8829034B2, “Compounds which modulate the CB2 receptor” (Boehringer Ingerlheim International GmbH, priority 2006, dated 2014).

This experiment concerns the target T1, human CB2R (Homo sapiens, UniProt P34972).
T1 construct: host or cells: CHO cells
Kind of experiment: CB2R mediated modulation of cAMP synthesis. It counts as cell-based. The following applies: for agonistic activity: found through the use of the above described assays. The protocol:
B. CB2R Mediated Modulation of cAMP Synthesis:
CHO cells expressing human CB2R (Euroscreen) were plated at a density of 5000 cells per well in 384 well plates and incubated overnight at 37° C. After removing the media, the cells were treated with test compounds diluted in stimulation buffer containing 1 mM IBMX, 0.25% BSA and 10 uM Forskolin. The assay was incubated for 30 minutes at 37° C. Cells were lysed and the cAMP concentration was measured using DiscoverX-XS cAMP kit, following the manufacturer's protocol. In this setting, agonists will decrease forskolin induced production of cAMP while inverse agonists will further increase forskolin induced production of cAMP. EC50 of agonists were calculated as follows. The maximal amount of cAMP produced by forskolin compared to the level of cAMP inhibited by 1 uM CP55940 is defined as 100%. The EC50 value of each test compound was determined as the concentration at which 50% of the forskolin-stimulated cAMP synthesis was inhibited. Data was analyzed using a four-parameter logistic model. (Model 205 of XLfit 4.0).

The term EC50 denotes the concentration at which the effect is half-maximal. Read a high EC50 as a less potent agent.

The structures appear in SMILES notation.

T1 sequence (P34972 whole entry): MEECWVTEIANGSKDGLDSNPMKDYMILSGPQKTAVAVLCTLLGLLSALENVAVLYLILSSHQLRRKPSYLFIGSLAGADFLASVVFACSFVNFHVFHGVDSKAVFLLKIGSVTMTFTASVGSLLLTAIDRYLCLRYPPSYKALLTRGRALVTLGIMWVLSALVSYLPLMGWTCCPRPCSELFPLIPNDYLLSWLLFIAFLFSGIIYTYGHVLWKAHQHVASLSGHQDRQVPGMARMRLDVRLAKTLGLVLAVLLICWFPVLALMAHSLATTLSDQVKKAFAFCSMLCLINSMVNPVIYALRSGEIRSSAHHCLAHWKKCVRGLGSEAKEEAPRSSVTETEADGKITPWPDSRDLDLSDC

Consider `Cn1nc(-c2ccccc2)cc1NC(=O)C(C)(C)S(=O)(=O)CC1CCOCC1` [2-Methyl-N-(2-methyl-5-phenyl-2H-pyrazol-3-yl)-2-(tetrahydro-pyran-4-ylmethanesulfonyl)-propionamide], for which the agonistic activity entry is “agonistic activity”.
For `CCCS(=O)(=O)C(C)(C)C(=O)Nc1cc(-c2cccs2)nn1C` [2-Methyl-N-(2-methyl-5-thiophen-2-yl-2H-pyrazol-3-yl)-2-(propane-1-sulfonyl)-propionamide], the agonistic activity entry is reported as “agonistic activity”.
`CC(C)S(=O)(=O)C(C)(C)C(=O)Nc1cc(-c2cccs2)nn1C` [2-Methyl-N-(2-methyl-5-thiophen-2-yl-2H-pyrazol-3-yl)-2-(propane-2-sulfonyl)-propionamide]: the agonistic activity entry is “agonistic activity”.
Consider `CC(C)(C(=O)Nc1nc(-c2ccccc2)ns1)S(=O)(=O)CC1CCOCC1` [2-Methyl-N-(3-phenyl-1,2,4-thiadiazol-5-yl)-2-(tetrahydro-pyran-4-ylmethanesulfonyl)-propionamide], for which the agonistic activity entry is “agonistic activity”.
For `CCCc1cc(NC(=O)C(C)(C)S(=O)(=O)CC2CCOCC2)on1` [2-Methyl-N-(3-propyl-isoxazol-5-yl)-2-(tetrahydro-pyran-4-ylmethanesulfonyl)-propionamide], the agonistic activity entry is listed as “agonistic activity”.
For the compound `CC(C)S(=O)(=O)C(C)(C)C(=O)Nc1nc(-c2ccccc2)cs1` [2-Methyl-N-(4-phenyl-thiazol-2-yl)-2-(propane-2-sulfonyl)-propionamide], the agonistic activity result was “agonistic activity”.
Take `CC(C)(C(=O)Nc1nc(-c2ccccc2)cs1)S(=O)(=O)CC1CCOCC1` [2-Methyl-N-(4-phenyl-thiazol-2-yl)-2-(tetrahydro-pyran-4-ylmethanesulfonyl)-propionamide]: the response was half-maximal at 7.1 nM (EC50) and the agonistic activity entry is “agonistic activity”.
On to `CC(C)(C(=O)Nc1nc(-c2ccccn2)cs1)S(=O)(=O)CC1CCOCC1` [2-Methyl-N-(4-pyridin-2-yl-thiazol-2-yl)-2-(tetrahydro-pyran-4-ylmethanesulfonyl)-propionamide], for which the agonistic activity result is reported as “agonistic activity”.
Take `CC(C)(C(=O)Nc1nc(-c2cccnc2)cs1)S(=O)(=O)CC1CCOCC1` [2-Methyl-N-(4-pyridin-3-yl-thiazol-2-yl)-2-(tetrahydro-pyran-4-ylmethanesulfonyl)-propionamide]: the agonistic activity entry is “agonistic activity”.
For the compound `CC(C)(C(=O)Nc1nc(-c2ccncc2)cs1)S(=O)(=O)CC1CCOCC1` [2-Methyl-N-(4-pyridin-4-yl-thiazol-2-yl)-2-(tetrahydro-pyran-4-ylmethanesulfonyl)-propionamide], the agonistic activity entry is “agonistic activity”.
Take `CCCS(=O)(=O)C(C)(C)C(=O)Nc1nc(-c2ccccc2)c(C)s1` [2-Methyl-N-(5-methyl-4-phenyl-thiazol-2-yl)-2-(propane-1-sulfonyl)-propionamide]: a half-maximal response (EC50) required 52.2 nM and the agonistic activity result is “agonistic activity”.
As for `Cc1sc(NC(=O)C(C)(C)S(=O)(=O)CC2CCOCC2)nc1-c1ccccc1` [2-Methyl-N-(5-methyl-4-phenyl-thiazol-2-yl)-2-(tetrahydro-pyran-4-ylmethanesulfonyl)-propionamide], the EC50 was 2.5 nM and the agonistic activity entry is recorded as “agonistic activity”.
On to `Cc1ccc(NC(=O)C(C)(C)S(=O)(=O)CC2CCOCC2)nc1` [2-Methyl-N-(5-methyl-pyridin-2-yl)-2-(tetrahydro-pyran-4-ylmethanesulfonyl)-propionamide], for which the agonistic activity entry was “agonistic activity”.
Regarding `CC(C)(C(=O)Nc1nnc(-c2ccccc2)[nH]1)S(=O)(=O)CC1CCOCC1` [2-Methyl-N-(5-phenyl-4H-1,2,4-triazol-3-yl)-2-(tetrahydro-pyran-4-ylmethanesulfonyl)-propionamide], the EC50 was determined as 1.7 nM and the agonistic activity result is given as “agonistic activity”.
`CC(C)(C(=O)Nc1nsc(-c2ccccc2)n1)S(=O)(=O)CC1CCOCC1` [2-Methyl-N-(5-phenyl-[1,2,4]thiadiazol-3-yl)-2-(tetrahydro-pyran-4-ylmethanesulfonyl)-propionamide]: the midpoint of the response, the EC50, lay at 17.6 nM and the agonistic activity entry is “agonistic activity”.
Regarding `CCCS(=O)(=O)C(C)(C)C(=O)Nc1ccc(-c2ccccc2)cn1` [2-Methyl-N-(5-phenyl-pyridin-2-yl)-2-(propane-1-sulfonyl)-propionamide], the agonistic activity entry was “agonistic activity”.
As for `CC(C)(C(=O)Nc1cccc2ccccc12)S(=O)(=O)CC1CCOCC1` [2-Methyl-N-naphthalen-1-yl-2-(tetrahydro-pyran-4-ylmethanesulfonyl)-propionamide], the agonistic activity result is given as “agonistic activity”.
On the same count and under the same terms, the entry for `CC(C)S(=O)(=O)C(C)(C)C(=O)Nc1ccc2ccccc2c1` [2-Methyl-N-naphthalen-2-yl-2-(propane-2-sulfonyl)-propionamide] is “agonistic activity”.
With `CC(C)(C(=O)Nc1ccc2ccccc2n1)S(=O)(=O)CC1CCOCC1` [2-Methyl-N-quinolin-2-yl-2-(tetrahydro-pyran-4-ylmethanesulfonyl)-propionamide], it took 5.8 nM to reach a half-maximal effect (EC50) and the agonistic activity result was “agonistic activity”.
As for `CC(C)(C(=O)Nc1cnc2ccccc2c1)S(=O)(=O)CC1CCOCC1` [2-Methyl-N-quinolin-3-yl-2-(tetrahydro-pyran-4-ylmethanesulfonyl)-propionamide], the EC50 was found to be 86 nM and the agonistic activity result is “agonistic activity”.
Consider `CCCS(=O)(=O)C(C)(C)C(=O)Nc1c(C)c(-c2ccccc2)nn1C` [N-(2,4-Dimethyl-5-phenyl-2H-pyrazol-3-yl)-2-methyl-2-(propane-1-sulfonyl)-propionamide], for which the agonistic activity result was “agonistic activity”.
Same read-out and setting: the value for `Cc1c(-c2ccccc2)nn(C)c1NC(=O)C(C)(C)S(=O)(=O)CC1CCOCC1` [N-(2,4-Dimethyl-5-phenyl-2H-pyrazol-3-yl)-2-methyl-2-(tetrahydro-pyran-4-ylmethanesulfonyl)-propionamide] was “agonistic activity”; that for `CC(C)c1cc(NC(=O)C(C)(C)S(=O)(=O)CC2CCOCC2)on1` [N-(3-Isopropyl-isoxazol-5-yl)-2-methyl-2-(tetrahydro-pyran-4-ylmethanesulfonyl)-propionamide] was “agonistic activity”.
As for `CCC(C)c1cc(NC(=O)C(C)(C)S(=O)(=O)CC2CCOCC2)on1` (stereo not drawn) [N-(3-sec-Butyl-isoxazol-5-yl)-2-methyl-2-(tetrahydro-pyran-4-ylmethanesulfonyl)-propionamide], the EC50 is 20 nM and the agonistic activity entry is “agonistic activity”.
As for `CC(C)(C)c1cc(NC(=O)C(C)(C)S(=O)(=O)Cc2ccc(F)cc2)on1` [N-(3-tert-Butyl-isoxazol-5-yl)-2-(4-fluoro-phenylmethanesulfonyl)-2-methyl-propionamide], the EC50 worked out at 17 nM and the agonistic activity entry is “agonistic activity”.
Regarding `CC(C)(C)c1cc(NC(=O)C(C)(C)S(=O)(=O)CC2CCC2)on1` [N-(3-tert-Butyl-isoxazol-5-yl)-2-cyclobutylmethanesulfonyl-2-methyl-propionamide], the concentration for a half-maximal effect (EC50) was 3.7 nM and the agonistic activity entry is “agonistic activity”.
